Source: patent publication US10723741B1, “DNA polymerase IIIC inhibitors and use thereof” (Acurx Pharmaceuticals, LLC, priority 2018, dated 2020)
≈ marks a conversion by molar mass, not a printed value.

What was measured:
Format in all cases: cell-based
[1] = system: Streptococcus pneumoniae ATCC 49619; experiment: Broth microdilution MIC, S. pneumoniae ATCC 49619; settings: ATCC49619, broth microdilution, 37° C., 20 hours, read-out: MIC S. pneumoniae ATCC 49619
In short: (§1)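 Broth microdilution in strain-specific test medium with ~5.0×10^5 cfu/ml inoculum, 1% DMSO and two-fold compound dilutions from 64 to 0.0625 μg/ml. Plates were held 20 hours at 37° C in ambient air. S. pneumoniae colonies were grown beforehand on blood agar in 5% CO2.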

[2] = system: Enterococcus faecium ATCC 700221 (VRE); experiment: Broth microdilution MIC, E. faecium ATCC 700221 (VRE); set-up: MIC E. faecium ATCC 700221 (VRE): unit: ug/mL; settings: broth microdilution, 37° C., 20 hours; for MIC: Enterococcus faecium, read-out: MIC E. faecium ATCC 700221 (VRE)
In short: as §1

[3] = system: Bacillus subtilis ATCC 6633; experiment: Broth microdilution MIC, B. subtilis ATCC 6633; settings: ATCC6633, broth microdilution, 37° C., 20 hours, read-out: MIC B. subtilis ATCC 6633
In short: as §1

[4] = system: Staphylococcus aureus NRS384 (MRSA); experiment: Broth microdilution MIC, S. aureus NRS384 (MRSA); set-up: MIC NRS 384 (MRSA): unit not given here; settings: broth microdilution, 37° C., 20 hours; for MIC: Staphylococcus aureus, read-out: MIC NRS 384 (MRSA)
In short: as §1

[5] = system: Escherichia coli ATCC 25922; experiment: Broth microdilution MIC, E. coli ATCC 25922 (MHIIB w & w/o 4 mM EDTA); settings: broth microdilution, 37° C., 20 hours; for MIC: Escherichia coli, ATCC25922, without EDTA, read-out: MIC E. coli ATCC 25922; for MIC E. coli ATCC 25922 + 4 mM EDTA: with 4 mM EDTA
In short: as §1

[6] = system: Staphylococcus aureus ATCC 29213 (MSSA); experiment: Broth microdilution MIC, S. aureus ATCC 29213 (MSSA); settings: broth microdilution, 37° C., 20 hours, read-out: MIC S. aureus ATCC 29213 (MSSA)
In short: as §1

[7] = system: Enterococcus faecalis ATCC 29212; experiment: Broth microdilution MIC, E. faecalis ATCC 29212; settings: ATCC29212, broth microdilution, 37° C., 20 hours, read-out: MIC E. faecalis ATCC 29212
In short: as §1

Structure (SMILES) | MIC [1] | MIC [2] | MIC [3] | MIC [4] | MIC [5] | MIC E. coli ATCC 25922 + 4 mM EDTA [5] | MIC [6] | MIC [7] | MIC E. faecium ATCC 700221 (VRE) [2] | MIC NRS 384 (MRSA) [4]
CCc1[nH]c(CNc2nc3cnn(C)c3c(=O)[nH]2)nc1Cl.Cl [Compound 38, 5-(((4-Chloro-5-ethyl-1H-imidazol-2-yl)methyl)amino)-1-methyl-1H-pyrazolo[4,3-d]pyrimidin-7(6H)-one hydrochloride] | > 64 µg/mL | > 64 µg/mL | > 64 µg/mL | > 64 µg/mL | > 64 µg/mL | >64 µg/mL | > 64 µg/mL | > 64 µg/mL | – | –
Cl.O=c1[nH]c(NCc2ccc(Cl)c(Cl)c2)nc2cnn(C3CCN(S(=O)(=O)c4cccnc4)CC3)c12 [Compound 156, 5-((3,4-dichlorobenzyl)amino)-1-(1-(pyridin-3-ylsulfonyl)piperidin-4-yl)-1H-pyrazolo[4,3-d]pyrimidin-7(6H)-one hydrochloride] | 4 µg/mL | 1 µg/mL | 1 µg/mL | 2 µg/mL | > 64 µg/mL | >64 µg/mL | 2 µg/mL | > 64 µg/mL | – | –
Cl.O=C(c1cccnc1)N1CCC(n2ncc3nc(NCc4ccc(Cl)c(Cl)c4)[nH]c(=O)c32)C1 (stereo not drawn) [Compound 258, 5-((3,4-Dichlorobenzyl)amino)-1-(1-nicotinoylpyrrolidin-3-yl)-1H-pyrazolo[4,3-d]pyrimidin-7(6H)-one] | 4 µg/mL | 4 µg/mL | 2 µg/mL | 8 µg/mL | > 64 µg/mL | >64 µg/mL | 8 µg/mL | 8 µg/mL | – | –
CNC(=O)c1nn(C)c2c(=O)[nH]c(NCc3ccc(Cl)c(Cl)c3)nc12 [Compound 42, 5-((3,4-dichlorobenzyl)amino)-N, 1-dimethyl-7-oxo-6,7-dihydro-1H-pyrazolo[4,3-d]pyrimidine-3-carboxamide] | > 64 µg/mL | > 64 µg/mL | > 64 µg/mL | > 64 µg/mL | > 64 µg/mL | >64 µg/mL | > 64 µg/mL | > 64 µg/mL | – | –
COC(=O)c1nn(C)c2c(=O)[nH]c(NCc3ccc(Cl)c(Cl)c3)nc12 [Compound 40, Methyl 5-((3,4-dichlorobenzyl)amino)-1-methyl-7-oxo-6,7-dihydro-1H-pyrazolo[4,3-d]pyrimidine-3-carboxylate] | > 64 µg/mL | > 64 µg/mL | > 64 µg/mL | > 64 µg/mL | > 64 µg/mL | >64 µg/mL | > 64 µg/mL | > 64 µg/mL | – | –

Now from value to molecule:

MIC [1] | MIC [2] | MIC [3] | MIC [4] | MIC [5] | MIC E. coli ATCC 25922 + 4 mM EDTA [5] | MIC [6] | MIC [7] | MIC E. faecium ATCC 700221 (VRE) [2] | MIC NRS 384 (MRSA) [4] | Structure (SMILES)
8 µg/mL (≈ 14.8 µM) | 4 µg/mL (≈ 7.38 µM) | 4 µg/mL (≈ 7.38 µM) | 8 µg/mL (≈ 14.8 µM) | > 64 µg/mL | 16 µg/mL | 8 µg/mL (≈ 14.8 µM) | 8 µg/mL (≈ 14.8 µM) | – | – | CN(CCn1ncc2nc(NCc3ccc(Cl)c(Cl)c3)[nH]c(=O)c21)C(=O)c1cc(Cl)nnc1Cl [Compound 85, 3,6-dichloro-N-(2-(5-((3,4-dichlorobenzyl)amino)-7-oxo-6,7-dihydro-1H-pyrazolo[4,3-d]pyrimidin-1-yl)ethyl)-N-methylpyridazine-4-carboxamide]
4 µg/mL (≈ 9.75 µM) | 4 µg/mL (≈ 9.75 µM) | 32 µg/mL (≈ 78 µM) | 16 µg/mL (≈ 39 µM) | > 64 µg/mL | >64 µg/mL | 32 µg/mL (≈ 78 µM) | 16 µg/mL (≈ 39 µM) | – | – | O=C(O)CCCCn1ncc2nc(NCc3ccc(Cl)c(Cl)c3)[nH]c(=O)c21 [Compound 219, 5-[5-[(3,4-dichlorophenyl)methylamino]-7-oxo-6H-pyrazolo[4,3-d]pyrimidin-1-yl]pentanoic Acid]
4 µg/mL | – | 1 µg/mL | – | > 64 µg/mL | >64 µg/mL | 4 µg/mL | 8 µg/mL | 2/2 | 2/2 | Cl.O=c1[nH]c(NCc2ccc(Cl)c(Cl)c2)nc2cnn(CCc3ccccn3)c12 [Compound 111, 5-((3,4-Dichlorobenzyl)amino)-1-(2-(pyridin-2-yl)ethyl)-1H-pyrazolo[4,3-d]pyrimidin-7(6H)-one hydrochloride]
> 64 µg/mL | > 64 µg/mL | > 64 µg/mL | > 64 µg/mL | > 64 µg/mL | >64 µg/mL | > 64 µg/mL | > 64 µg/mL | – | – | Cn1ncc2nc(NCc3cn[nH]n3)[nH]c(=O)c21 [Compound 17, 5-(((2H-1,2,3-triazol-4-yl)methyl)amino)-1-methyl-1H-pyrazolo[4,3-d]pyrimidin-7(6H)-one]
